Biological target: IDO1 (Homo sapiens, UniProt P14902)
Experiment: IDO1 Human Whole Blood Assay
Assay type: cell-based
Details: LPS and IFNγ 100 ng/mL, overnight (18 h), kynurenine by LC/MS/MS, read-out: Human Whole Blood Potency, IC50
Description: IDO1 Human Whole Blood Assay Compounds to be tested were serially diluted in ten 3-fold steps in DMSO starting from 10 mM. 3 μL of compound dilutions or DMSO alone were then dispensed from the dilution plate into a polypropylene 96-well assay plate containing 97 μL of RPMI using an Echo 555 acoustic liquid handler (Labcyte). LPS and IFNγ was prepared in RPMI to a 10× of final conc. (1000 ng/mL), final concentration is 100 ng/mL. […] 240 μL of blood was transferred to each of the wells of a v-bottom 96 well plate. 30 μL of compound was transferred from intermediate dilution plate, and incubated for 15 min. 30 μL from stimulants was then transferred to blood and mixed thoroughly. Plate was covered with breathable membrane and incubated at 37° C. for overnight (18 h). […] Plasma was diluted with RPMI in 1:1 ratio and proteins were precipitated out with two volume of Acetonitrile. The plates were centrifuged at 4000×G for 60 min. 20 μL of supernatant was carefully transferred to a 384 well plate contain 40 μL of 0.1% formic acid in water and analyzed by LC/MS/MS. LC/MS/MS analyses were performed using Thermo Fisher's LX4-TSQ Quantum Ultra system. This system consists of four Agilent binary high-performance liquid chromatography (HPLC) pumps and a TSQ Quantum Ultra triple quadrupole MS/MS instrument. For each sample, 5 μL were injected onto an Atlantis T3 column (2.1 mm×150 mm, 3 μm particle size) from Waters. The mobile phase gradient pumped at 0.8 mL/min was used to elute the analytes from the column at 25° C. The elution started at 0% B increasing linearly to 25% B at 6.5 min, holding at 25% for 1 min, re-equilibrating to 10 min. Mobile phase A consisted of 0.1% formic acid in water. Mobile phase B consisted of 0.1% of formic acid in acetonitrile. Data was acquired in positive mode using a HESI interface. The operational parameters for the TSQ Quantum Ultra instrument were a spray voltage of 4000 V, capillary temperature of 380° C., vaporizer temperature 400° C., shealth gas 60 arbitrary units, Aux gas 20 arbitrary units, tube lens 85 and collision gas 1.2 mTorr. SRM chromatograms of kynurenine (Q1: 209.2>Q3:94.0) and internal standard (Q1: 215.3>Q3:98.2) were collected for 90 sec. The peak area was integrated by Xcalibur Quan software. […] Compounds were titrated and IC50's were calculated by 4 parameter sigmoidal curve fitting formula.

Sequence of IDO1 (P14902 whole entry): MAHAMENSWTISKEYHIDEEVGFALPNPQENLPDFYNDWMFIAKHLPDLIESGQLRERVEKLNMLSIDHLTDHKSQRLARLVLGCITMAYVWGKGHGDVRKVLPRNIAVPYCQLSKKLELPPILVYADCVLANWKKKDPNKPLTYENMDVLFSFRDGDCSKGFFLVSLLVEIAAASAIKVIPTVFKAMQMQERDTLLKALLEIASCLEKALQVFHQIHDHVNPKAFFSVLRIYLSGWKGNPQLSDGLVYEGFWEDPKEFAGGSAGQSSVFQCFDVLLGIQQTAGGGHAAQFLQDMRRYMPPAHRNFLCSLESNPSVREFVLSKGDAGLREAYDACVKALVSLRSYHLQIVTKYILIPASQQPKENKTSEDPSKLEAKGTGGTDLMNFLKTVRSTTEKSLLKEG

SMILES | IC50 [nM]
Cc1cccc(N2CCC(C(F)Cn3nc(C(=O)N4C[C@@H](C)O[C@@H](C)C4)c4c3CCC4)CC2)c1C (single isomer, unassigned) [Example 48] | 964
Cc1c(F)ccc(C2CCC(CCn3nc(C(=O)N4CCN(C(=O)CO)CC4)c4c3CCC4)CC2)c1C (single isomer, unassigned) [Example 49, 1-(4-(1-(2-(4-(4-fluoro-2,3-dimethylphenyl)cyclohexyl)ethyl)-1,4,5,6-tetrahydrocyclopenta[c]pyrazole-3-carbonyl)piperazin-1-yl)-2-hydroxyethan-1-one] | 177
Cc1c(F)ccc(C2CCC(CCn3nc(C(=O)N4CCC(F)(CO)CC4)c4c3CCC4)CC2)c1C (single isomer, unassigned) [Example 52, (1-(2-(4-(4-fluoro-2,3-dimethylphenyl)cyclohexyl)ethyl)-1,4,5,6-tetrahydrocyclopenta[c]pyrazol-3-yl)(4-fluoro-4-(hydroxymethyl)piperidin-1-yl)methanone] | 448
Cc1cccc(C2CCC(CCn3nc(C(=O)N4CCC(O)CC4)c4c3CCC4)CC2)c1C (single isomer, unassigned) [Example 95, (1-(2-(4-(2,3-dimethylphenyl)cyclohexyl)ethyl)-1,4,5,6-tetrahydrocyclopenta[c]pyrazol-3-yl)(4-hydroxypiperidin-1-yl)methanone] | 166
Cc1cccc(C2CCC(CCn3nc(C(=O)N4CCC(O)CC4)c4c3CCC4)CC2)c1C (single isomer, unassigned) [Example 96, (1-(2-(4-(2,3-dimethylphenyl)cyclohexyl)ethyl)-1,4,5,6-tetrahydrocyclopenta[c]pyrazol-3-yl)(4-hydroxypiperidin-1-yl)methanone] | 328
Cc1cccc(N2CCC(CCn3nc(C(=O)N4CCC(O)CC4)c4c3CCC4)CC2)c1C [Example 1, (1-(2-(1-(2,3-dimethylphenyl)piperidin-4-yl)ethyl)-1,4,5,6-tetrahydrocyclopenta[c]pyrazol-3-yl)(4-hydroxypiperidin-1-yl)methanone] | 341
Cc1c(F)ccc(N2CCC(CCn3nc(C(=O)N4CCC(F)(CO)CC4)c4c3CCC4)CC2)c1C [Example 8, (1-(2-(1-(4-fluoro-2,3-dimethylphenyl)piperidin-4-yl)ethyl)-1,4,5,6-tetrahydrocyclopenta[c]pyrazol-3-yl)(4-fluoro-4-(hydroxymethyl)piperidin-1-yl)methanone] | 251
Cc1c(F)ccc(N2CCC(CCn3nc(C(=O)N4CCN(C(=O)CO)CC4)c4c3CCC4)CC2)c1C [Example 11, 1-[4-[1-[2-[1-(4-fluoro-2,3-dimethyl-phenyl)piperidin-1-ium-4-yl]ethyl]-5,6-dihydro-4H-cyclopenta[c]pyrazole-3-carbonyl]piperazin-1-yl]-2-hydroxy-ethanone] | 800
CC(=O)NC1CCN(C(=O)c2nn(CCC3CCN(c4ccc(F)c(F)c4C)CC3)c3c2CCCC3)CC1 [Example 18, N-[1-[1-[2-[1-(3,4-difluoro-2-methyl-phenyl)-4-piperidyl]ethyl]-4,5,6,7-tetrahydroindazole-3-carbonyl]-4-piperidyl]acetamide] | 437
CC(=O)NC1CCN(C(=O)c2nn(CCC3CCN(c4cccc(Cl)c4C)CC3)c3c2CCCC3)CC1 [Example 20, N-[1-[1-[2-[1-(3-chloro-2-methyl-phenyl)-4-piperidyl]ethyl]-4,5,6,7-tetrahydroindazole-3-carbonyl]-4-piperidyl]acetamide] | 286
CC(=O)NC1CCN(C(=O)c2nn(CCC3CCN(c4nccc(C(F)(F)F)c4F)CC3)c3c2CCCC3)CC1 [Example 35, N-[1-[1-[2-[1-[3-fluoro-4-(trifluoromethyl)-2-pyridyl]-4-piperidyl]ethyl]-4,5,6,7-tetrahydroindazole-3-carbonyl]-4-piperidyl]acetamide] | 935
Cc1c(Cl)cccc1O[C@H]1CC[C@@H](CCn2nc(C(=O)N3C[C@@H](C)O[C@@H](C)C3)c3c2CCC3)CC1 [Example 53, (1-(2-((1s,4S)-4-(3-chloro-2-methylphenoxy)cyclohexyl)ethyl)-1,4,5,6-tetrahydrocyclopenta[c]pyrazol-3-yl)((2R,6S)-2,6-dimethylmorpholino)methanone] | 822
Cc1ccc(Cl)c(O[C@H]2CC[C@@H](CCn3nc(C(=O)N4CCN(C(=O)CO)CC4)c4c3CCC4)CC2)c1 [Example 57, 1-(4-(1-(2-((1s,4s)-4-(2-chloro-5-methylphenoxy)cyclohexyl)ethyl)-1,4,5,6-tetrahydrocyclopenta[c]pyrazole-3-carbonyl)piperazin-1-yl)-2-hydroxyethan-1-one] | 517
Cc1ccc(Cl)c(O[C@H]2CC[C@@H](CCn3nc(C(=O)N4CCC(F)(CO)CC4)c4c3CCC4)CC2)c1 [Example 58, (1-(2-((1s,4s)-4-(2-chloro-5-methylphenoxy)cyclohexyl)ethyl)-1,4,5,6-tetrahydrocyclopenta[c]pyrazol-3-yl)(4-fluoro-4-(hydroxymethyl)piperidin-1-yl)methanone] | 538
CC(=O)NC1CCN(C(=O)c2nn(CC[C@H]3CC[C@@H](Oc4ccccc4C)CC3)c3c2CCC3)CC1 [Example 61, N-(1-(1-(2-((1s,4s)-4-(2-methylphenoxy)cyclohexyl)ethyl)-1,4,5,6-tetrahydrocyclopenta[c]pyrazole-3-carbonyl)piperidin-4-yl)acetamide] | 30.6
CC(=O)NC1CCN(C(=O)c2nn(CC[C@H]3CC[C@@H](Oc4cnccc4C)CC3)c3c2CCC3)CC1 [Example 64, N-(1-(1-(2-((1s,4s)-4-((4-methylpyridin-3-yl)oxy)cyclohexyl)ethyl)-1,4,5,6-tetrahydrocyclopenta[c]pyrazole-3-carbonyl)piperidin-4-yl)acetamide] | 215
CC(=O)NC1CCN(C(=O)c2nn(CC[C@H]3CC[C@@H](Oc4ccccc4C(F)(F)F)CC3)c3c2CCC3)CC1 [Example 65, N-(1-(1-(2-((1s,4s)-4-(2-(trifluoromethyl)phenoxy)cyclohexyl)ethyl)-1,4,5,6-tetrahydrocyclopenta[c]pyrazole-3-carbonyl)piperidin-4-yl)acetamide] | 130
CC(=O)NC1CCN(C(=O)c2nn(CC[C@H]3CC[C@@H](Oc4nccc(C)c4C#N)CC3)c3c2CCC3)CC1 [Example 66, N-(1-(1-(2-((1s,4s)-4-((3-cyano-4-methylpyridin-2-yl)oxy)cyclohexyl)ethyl)-1,4,5,6-tetrahydrocyclopenta[c]pyrazole-3-carbonyl)piperidin-4-yl)acetamide] | 153
CC(=O)NC1CCN(C(=O)c2nn(CC[C@H]3CC[C@@H](Oc4ccc(C)nc4C)CC3)c3c2CCC3)CC1 [Example 67, N-(1-(1-(2-((1s,4s)-4-((2,6-dimethylpyridin-3-yl)oxy)cyclohexyl)ethyl)-1,4,5,6-tetrahydrocyclopenta[c]pyrazole-3-carbonyl)piperidin-4-yl)acetamide] | 209
CC(=O)NC1CCN(C(=O)c2nn(CC[C@H]3CC[C@@H](Oc4cnc(C)nc4C)CC3)c3c2CCC3)CC1 [Example 68, N-(1-(1-(2-((1s,4s)-4-((2,4-dimethylpyrimidin-5-yl)oxy)cyclohexyl)ethyl)-1,4,5,6-tetrahydrocyclopenta[c]pyrazole-3-carbonyl)piperidin-4-yl)acetamide] | 517
